Laboratory results published in PubChem BioAssay (NCI).
Values joined by “and” are separate entries in the source; they are usually repeats but may differ in a detail not shown here. Equal values may be shown once.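 Growth conditions: 96-well plates. Treatment: test compound, 48 hours, 5 concentrations. Analysis: linear interpolation between bracketing concentrations; unreached endpoints set to highest concentration. GI50 marks 50% less growth. TGI is the concentration that stops growth completely.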

Experiments:
Assay in all cases: DTP human tumour cell line panel, 48 h
NCI-H460 lung = test system: NCI-H460 lung
HT29 colon = test system: HT29 colon
OVCAR-4 ovarian = test system: OVCAR-4 ovarian
NCI-H23 lung = test system: NCI-H23 lung
DU-145 prostate = test system: DU-145 prostate
A498 renal = test system: A498 renal
786-0 renal = test system: 786-0 renal
MDA-MB-435 = test system: MDA-MB-435
TK-10 renal = test system: TK-10 renal
SK-OV-3 ovarian = test system: SK-OV-3 ovarian

Compound | TGI (NCI-H460 lung) [µM] | TGI (HT29 colon) [µM] | TGI (OVCAR-4 ovarian) [µM] | TGI (NCI-H23 lung) | TGI (DU-145 prostate) | TGI (A498 renal) [µM] | TGI (786-0 renal) [µM] | TGI (MDA-MB-435) | TGI (TK-10 renal) [µM] | TGI (SK-OV-3 ovarian) [µM] | GI50 (NCI-H460 lung) [µM] | GI50 (HT29 colon) | GI50 (OVCAR-4 ovarian) | GI50 (NCI-H23 lung) | GI50 (SK-OV-3 ovarian) [µM] | GI50 (A498 renal) [µM] | GI50 (786-0 renal) | GI50 (TK-10 renal) [µM] | GI50 (DU-145 prostate) | GI50 (MDA-MB-435)
NNc1nc2ccccc2o1 | > 100 | > 100 | > 100 | > 100 µM | > 100 µM | > 100 | > 100 | > 100 µM | > 100 |  |  |  |  |  |  |  |  |  |  | 
O=C1NC2(CCCC2)C2CCCCC12O (stereo unspecified) | > 100 | > 100 | > 100 | > 100 µM |  | > 100 | > 100 |  | > 100 | > 100 |  |  |  |  |  |  |  |  |  | 
Brc1ccc(C=NC23CC4CC(CC(C4)C2)C3)cc1 | > 100 | > 100 | > 100 | > 100 µM |  | > 100 | > 100 |  | > 100 | > 100 |  |  |  |  |  |  |  |  |  | 
CC(=O)NCc1c(C(N)=O)ncn1Cc1ccccc1 | > 100 | > 100 | > 100 | > 100 µM |  | > 100 | > 100 |  | > 100 | > 100 |  |  |  |  |  |  |  |  |  | 
[Co].[O-]c1cccnc1C=Nc1ccccc1.[OH3+] | > 100 | > 100 | > 100 | > 100 µM |  | > 100 | > 100 |  | > 100 | > 100 | > 100 | > 100 µM | > 100 µM | > 100 µM | > 100 | > 100 | > 100 µM | > 100 |  | 
Cc1ccc(/C=N/NS(=O)(=O)c2ccccc2)cc1C | > 100 | > 100 | > 100 | > 100 µM |  | > 100 | > 100 |  | > 100 | > 100 |  |  |  |  |  |  |  |  |  | 
C1C[OH+]CCNCC[OH+]CC[OH+]CCN1.N.[Cl-].[Pt+4] | > 100 | > 100 | > 100 | > 100 µM |  | > 100 | > 100 |  | > 100 | 96 | 93 | 43.7 µM | > 100 µM | 27.1 µM | 25.1 | 64.6 | > 100 µM | 49.5 |  | 
CCCCCCCC(=O)OCC1OC(n2cc(F)c(=O)[nH]c2=O)C(N)C(O)C1O (stereo unspecified) | > 100 | > 100 | > 100 | > 100 µM |  | > 100 | > 100 |  |  | > 100 |  |  |  |  |  |  |  |  |  | 
O=C(c1ccc2ccccc2c1)c1c(C(F)(F)F)n([O-])c2cc(C(F)(F)F)ccc2[n+]1=O | 3.44 | 3.46 | 3.51 | 5.87 µM | 3.12 µM |  | 3.15 | 3.31 µM | 3.06 | 3.23 | 1.66 | 1.74 µM | 1.22 µM | 2.41 µM | 1.79 |  | 1.62 µM | 1.68 | 1.67 µM | 1.71 µM
CCC[CH2][Sn]1([CH2]CCC)[O]CC[S]1 | 3.72 | 2.81 | 3 | 1.82 µM |  |  | 1.7 |  | 1.39 | 2.96 | 1.77 | 1.27 µM | 1.57 µM | 0.398 µM | 1.61 |  | 0.516 µM | 0.508 |  | 
CC[O-].CC[O-].O=C([CH-]C(=O)c1ccccc1)CCCCCCC(=O)[CH-]C(=O)c1ccccc1.[Ti+4] | > 100 | > 100 | > 100 | > 100 µM |  | > 100 | > 100 |  | > 100 | > 100 | > 100 | > 100 µM | > 100 µM | > 100 µM | > 100 | > 100 | > 100 µM | > 100 |  | 
CN=C1CN=C(OP(=O)(N2CCOCC2)N2CCOCC2)c2cc(Cl)ccc2N1 | > 100 | > 100 | > 100 | > 100 µM |  | > 100 | > 100 |  | > 100 |  |  |  |  |  |  |  |  |  |  | 
CC(=O)[CH-]C(C)=O.CC(=O)[CH-]C(C)=O.[Cl-].[O]=[V] | > 100 |  |  | 34.5 µM |  |  | 42.9 |  | 60.6 |  | 46.2 |  |  | 14.2 µM |  |  | 20 µM | 24.5 |  | 
OCCN(CCO)c1nc(N2CCCCC2)c2nc(N(CCO)CCO)nc(N3CCCCC3)c2n1 | > 100 | 40 | > 100 | > 100 µM | > 100 µM |  | > 100 | > 100 µM | 64.6 |  |  |  |  |  |  |  |  |  |  | 
COc1ccc(C2=NN(C(C)=O)C(c3ccc(Oc4ccnc5cc(Cl)ccc45)c(OC)c3)C2)cc1 (stereo unspecified) |  |  |  | > 100 µM | > 100 µM | 92.2 | 26.8 | > 100 µM |  | 42.9 |  |  |  | 11.9 µM | 6.01 | 15.2 | 4.52 µM |  | > 100 µM | > 100 µM
CCOC(=O)c1c(-c2ccc(OC)c(O)c2)c(C#N)c(=S)n(C2OC(COC(C)=O)C(OC(C)=O)C(OC(C)=O)C2OC(C)=O)c1-c1ccccc1 (stereo unspecified) | > 100 | > 100 | > 100 | 60.3 µM and > 100 µM | 76.3 µM and > 100 µM | > 100 | > 100 | 91.6 µM and > 100 µM |  |  |  | 36.7 µM and > 100 µM | 47.2 µM and > 100 µM | 22.2 µM and > 100 µM |  |  | 35.1 µM and > 100 µM |  | 27.3 µM and > 100 µM | 31.7 µM and 67.9 µM
C[N+](C)(C)C1CC([N+](C)(C)C)C2c3ccccc3C21 (stereo unspecified) | > 100 | > 100 | > 100 | > 100 µM |  | > 100 | > 100 |  | > 100 | > 100 |  |  |  |  |  |  |  |  |  | 
O=S1(=O)c2cc(S(=O)(=O)n3ccnc3)ccc2NC2=NCCCN21 |  | 46.3 | > 100 | > 100 µM |  | 62.3 | 99.6 |  | > 100 | 46.9 |  |  |  |  |  |  |  |  |  | 
O=C1OC(c2ccc(Cl)cc2)=N/C1=C\c1ccccc1 | > 100 | > 100 | > 100 | > 100 µM | > 100 µM |  | > 100 | > 100 µM | > 100 | > 100 |  |  |  |  |  |  |  |  |  | 
N#CC(C(=O)CCC(=O)Nc1cccc(C(F)(F)F)c1)c1ccccc1 (stereo unspecified) | > 100 | > 100 | > 100 | > 100 µM |  | > 100 | > 100 |  | > 100 |  |  |  |  |  |  |  |  |  |  | 
COc1ccccc1NC(=O)C1=C(C)NC(C)=C(C(=O)Nc2ccccc2OC)C1c1ccccc1Cl | > 100 | > 100 | > 100 | > 100 µM |  | > 100 | > 100 |  | > 100 | > 100 |  |  |  |  |  |  |  |  |  | 
